Structures can show the parent of a compound that is named as a salt.
Legend:
PEX405 cells [1] = assay: Plasmalogens synthesis (LC-MS/MS); assay type: cell-based, human; conditions: treatment over 3 days
Protocol: The assay was performed in T75 culture flasks for 3 or 10 days. The medium was replaced by fresh medium every 2-3 days. After 3 or 10 days, the cells were harvested and lysated in water (100-200 µL) by freeze/thaw cycle and sonication for 5 min. Total proteins were quantified using BCA assay and 100 µg of total proteins were used for each sample.
After cell lysis, the samples were dried using a rotating evaporator (Genevac EZ-2, SP Scientific), set at 40°C for 2h under vacuum. Then a solution containing water/acetonitrile 20/80 v/v was added to the wells. Before analysis, the samples were centrifuged at 4000 rpm for 20 min at room temperature. For the separation of plasmalogens by liquid chromatography, a Waters Acquity ultra-performance liquid chromatography (UPLC) system (Acquity I-Class, Waters) was used. A Waters Acquity UPLC BEH (Ethylene Bridged Hybrid) C8 column (2.1 × 50mm, particle size 1.7 µm, pore size 130 A, 2.1mm inner diameter) preceded by a metal pre-filter (KrudKatcher Ultra HPLC In-Line Filter, AF0-8497, Phenomenex) was used for separation. The column temperature was maintained at 50°C. The injection volume was 5µL for each analysis. The mobile phase A was composed of water + 0.1% formic acid and the mobile phase B was methanol + 0.1% formic acid. The separation was done using a gradient, with a flow rate set at 0.7 mL/min throughout the separation:
During analysis, the samples were kept at 10°C, and 5 µL of each sample were injected. After separation by liquid chromatography, the analytes were subjected to MS/MS analysis using a Waters Xevo TQSmicro system (Waters). The analytes were ionized using positive electrospray ionization (positive ESI). The molecules were analyzed using MRM mode. The analyzed plasmalogens contained moieties with C16:0, C18:0, C18:1 at the sn-1 position and fatty acid of chain-length 18 to 24 with 1 to 6 unsaturations at the sn-2 position. […] The cellular levels of plasmalogens were calculated using the area of each plasmalogen divided by protein quantity. […] The acquired data were analyzed by the Waters MassLynx software.

PEX405 cells [2] = assay: Beta-oxidation of d4-C24:0 (LC-MS/MS); assay type: cell-based, human; conditions: 3 days of treatment, dose response manner
Protocol: Degradation (to d4-C16:0) and elongation (to d4-C26:0 and d4-C28:0) of d4-VLCFA (very long chain fatty acid) in the cells was measured using d4-C24:0 as substrate (D-6145-CDN isotopes). D4-C24:0 was solubilized in culture medium using α-cyclodetrin, with a molar ratio of d4-C24:0:α-cyclodextrin 1:50. Cyclodextrins, which are cyclic oligosaccharides, are commonly used to solubilize fatty acids by complexation, for supplementation of cell culture media, and serve as vehicle to deliver fatty acids to the cells. Cyclodextrins have a polar surface and a hydrophobic cylindrical cavity that can bind and solubilize a wide variety of hydrophobic molecules, such as fatty acids, while remaining soluble in water. The assay was performed in T75 culture flasks for 3 or 10 days. The medium was replaced by fresh medium every 2-3 days and supplemented with d4-C24:0 for the last 3 days. After 3 or 10 days, cells were harvested and lysated in water (100-200 µL) by freeze/thaw cycle and sonication for 5 min. Total proteins were quantified using BCA assay and 100 µg of total proteins were used for each sample.
After cell lysis, the samples were dried using a rotating evaporator (Genevac EZ-2, SP Scientific), set at 40°C for 2h under vacuum. After evaporation, a hydrolysis mix consisting of 90% acetonitrile and 10% NaOH 1N in water was added to the samples. The samples were incubated for 1h at room temperature under stirring (300 rpm). After hydrolysis, the samples were evaporated using a Genevac device, under vacuum, at 40°C for 2h.
Derivation of free fatty acids was done using a 2.5 mg/mL Na2CO3 solution in DMF and a 2.5 mg/mL TMAE (trimethylammoniumethyl) reagent solution in DMF. The solutions were mixed in a 1:1 ratio, and 200 µL of the mix was added to dry samples to be derived. For the derivation, the samples were incubated for 3h at 50°C. DMF was then evaporated using a Genevac™ device, under vacuum, at 60°C for 4h.
Before injection, the samples were solubilized in a 90/10 acetonitrile/isopropanol mixture with 1% HCl. After solubilization, the samples were stirred and centrifuged at 4000 rpm for 20 min at 10°C.
For the separation of the derived fatty acids by liquid chromatography, a Waters Acquity ultra-performance liquid chromatography (UPLC) system (Acquity I-Class, Waters) was used. […]
After separation by liquid chromatography, the analytes were subjected to MS analysis using a Waters Xevo TQSmicro system (Waters). […] The molecules were analyzed using MRM (multiple reaction monitoring) mode, with the main daughter ion for each derived fatty acid corresponding to the loss of a trimethylammonium moiety (m/z 59). Derived FAs with a chain length from 16 to 28, with no or one unsaturation, were analyzed. […] The acquired data were analyzed by the Waters MassLynx software.

Compound: CCN(CC)Cc1ccc2cc(COC(=O)Nc3ccc(C(=O)NO)cc3)ccc2c1 [Givinostat (hydrochloride monohydrate), Givinostat]
- plasmalogen levels (PEX405 cells [1]): increased
- d4-C16,C18,C20 and C22 levels (PEX405 cells [2]): increase
